Assay [1] has as its target T1, VEGFR2 intracellular domain protein (Homo sapiens, UniProt P35968).
T1 construct: made in house; host or cells: SF-21 insect cells, recombinant baculovirus BAC-VEGFR2
Kind of assay: Vascular endothelial growth factor receptor 2 (VEGFR2) kinase inhibitory activity (AlphaScreen). Format: biochemical. The method, then:
Human vascular endothelial growth factor receptor 2 (hereinafter to be referred to as VEGFR2) gene was cloned by PCR using cDNA Libraries Human Placenta (Clontech) as a template. […] The primer base sequence is shown below.
SF-21 cells were sown at 1×10^6 cells/mL to Sf-900II SFM medium (1 L, Invitrogen) containing 10% fetal bovine serum (trace), 50 mg/L Gentamicin (Invitrogen) and 0.1% Pluronic F-68 (Invitrogen), and shaking culture was performed using a 2 L volume Erlenmeyer flask at 27° C., 100 rpm. After culturing for 24 hrs, recombinant baculovirus BAC-VEGFR2 (13.4 mL) was added to the mixture, and the mixture was further cultured for 3 days. The culture medium was centrifuged at 2,000 rpm for 5 min to give virus-infected cells. The infected cells were washed with a phosphate buffered saline (Invitrogen), centrifuged under the same conditions, and the cells were preserved at −80° C. The cryopreserved cells were thawed in ice, suspended in buffer A (50 mM Tris buffer (30 mL, pH 7.4) containing 20% glycerol, 0.15 M NaCl) supplemented with Complete Protease Inhibitor (Boehringer), and ruptured 3 times with a Polytron homogenizer (Kinematica) at 20,000 rpm for 30 sec. The ruptured medium was clarified by centrifugation at 40,000 rpm for 30 min and filtered with a 0.45 μm filter. The filtrate was passed through a column packed with Anti-FLAG M2 Affinity Gel (4 mL, Sigma) at a flow rate of about 0.5 mL/min. The column was washed with buffer A, and eluted with buffer A containing 100 μg/mL of FLAG peptide. The eluate was concentrated with Vivaspin 20 (Vivascience) having a molecular weight cut off of 30K. The buffer of this concentrate was exchanged using NAP™ 25 column (Amersham Bioscience) equilibrated with buffer A. The fractions containing intracellular domain protein of VEGFR2 were collected, glycerol was added to the final concentration of 50% and cryopreserved at −80° C.
A test compound dissolved in dimethyl sulfoxide (DMSO) was diluted with a buffer (50 mM Tris-HCl (pH 7.5), 5 mM MgCl2, 5 mM MnCl2, 2 mM dithiothreitol, 0.01% Tween-20). To this compound solution (5 μL) was added a buffer (10 μL) containing 50 ng/mL of VEGFR2 intracellular domain protein and 250 ng/mL of biotin labeled polypeptide biotinyl-poly-Glu:Tyr (4:1) (CIS bio International). […] The reaction solution was allowed to stand at 25° C. for 16 hrs, and the wells were counted using a plate reader (Fusion™ (PerkinElmer)). The kinase inhibitory rate (%) of the test compound was calculated by the following formula: Inhibitory rate (%)=(1−(count of test compound−blank)÷(control−blank))×100
(§1) The count of the solution reacted without addition of the compound was used as a “control”, and the count of the solution without the compound and ATP was used as a “blank”.

For assay [2], the target named is T2, Tie2 intracellular domain protein (Homo sapiens, UniProt Q02763).
T2 construct: 50 ng/mL of Tie2 intracellular domain protein (Millipore); purchased Millipore
Kind of assay: TIE2 kinase inhibitory activity (AlphaScreen). The class given is biochemical. How it is done:
A test compound dissolved in dimethyl sulfoxide (DMSO) was diluted with a buffer (50 mM Tris-HCl (pH 7.5), 5 mM MgCl2, 5 mM MnCl2, 2 mM dithiothreitol, 0.01% Tween-20). A buffer (10 μL) containing 50 ng/mL of Tie2 intracellular domain protein (Millipore) and 250 ng/ml, of biotin labeled polypeptide biotinyl-poly-Glu:Tyr (4:1) (CIS bio International) was added to the compound solution (5 μL). At 5 min from the mixing of the kinase enzyme, the compound and the biotin labeled polypeptide, a buffer (10 μL) containing 5 μM ATP was added, and the mixture was reacted at 25° C. for 10 min. The reaction was quenched by the addition of 25 μL of a stop solution (100 mM EDTA disodium salt, 62.5 mM HEPES buffer (pH 7.4), 250 mM NaCl, 0.1% bovine serum albumin, 10 μg/ml AlphaScreen assay streptavidin donor beads (Streptavidin Donor beads: PerkinElmer), 10 μg/ml, AlphaScreen assay anti-phosphotyrosine recognition antibody PT-66 binding acceptor beads (Anti-phosphotyrosine (PT-66) Acceptor beads: PerkinElmer)). The reaction solution was allowed to stand at 25° C. for 16 hrs, and the […] were counted using a plate reader (Fusion™ (PerkinElmer)). The kinase inhibitory rate (%) of the test compound was calculated by the following formula: Inhibitory rate (%)=(1−(count of test compound−blank)÷(control−blank))×100
as §1

Assay [3] deals with Human blood cell cancer cell line MV-4-11. Kind of assay: Human blood cell cancer cell line MV-4-11 growth inhibitory test. The conditions noted are these: MV4-11, 72 h, culture for 3 days; for inhibition at 1 µM: 1 μM test substance, read-out: inhibitory rate (%) at 1 μM. Format: cell-based. The method, then:
Human blood cell cancer cell line MV-4-11 (ATCC) was cultured in IMDM (Invitrogen) containing 10% bovine fetal serum in an incubator at 37° C., 5% CO2. MV-4-11 cells were treated with trypsin/EDTA and recovered. The cells were suspended in IMDM containing 10% bovine fetal serum, plated on a 96 well flat bottom plate at a cells density of 30,000 cells/50 μL per well. After culturing overnight, various concentrations of test substance were dissolved in IMDM containing 10% bovine fetal serum and added to each well by 50 μL. After culture for 3 days, a Cell counting kit-8 reagent (DOJINDO LABORATORIES) was added to each well by 10 μL, and reacted in an incubator at 37° C., 5% CO2 for 2-3 hr. After the reaction, the absorbance of each well at 450 nm was measured by a microtiter plate reader. The concentration of a test substance necessary for inhibiting the growth by 50% (IC50 value) was calculated using a cell proliferation rate with addition of the test substance at each concentration and according to the nonlinear regression analysis using GraphPad Prism [Sigmoidal dose response (variable slope)].

Bounds are passed on as bounds.

T2 sequence (Q02763 770-1124 limits assumed): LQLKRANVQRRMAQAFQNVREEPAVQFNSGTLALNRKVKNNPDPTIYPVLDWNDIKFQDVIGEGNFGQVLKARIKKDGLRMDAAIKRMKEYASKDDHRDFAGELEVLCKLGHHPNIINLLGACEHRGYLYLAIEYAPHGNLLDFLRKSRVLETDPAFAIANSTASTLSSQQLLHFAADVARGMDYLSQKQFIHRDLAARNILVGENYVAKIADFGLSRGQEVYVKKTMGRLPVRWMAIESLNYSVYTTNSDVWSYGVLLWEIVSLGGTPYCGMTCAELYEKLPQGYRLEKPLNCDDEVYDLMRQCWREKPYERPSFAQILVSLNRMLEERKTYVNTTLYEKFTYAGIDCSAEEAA
T1 sequence (P35968 786-1356 limits assumed): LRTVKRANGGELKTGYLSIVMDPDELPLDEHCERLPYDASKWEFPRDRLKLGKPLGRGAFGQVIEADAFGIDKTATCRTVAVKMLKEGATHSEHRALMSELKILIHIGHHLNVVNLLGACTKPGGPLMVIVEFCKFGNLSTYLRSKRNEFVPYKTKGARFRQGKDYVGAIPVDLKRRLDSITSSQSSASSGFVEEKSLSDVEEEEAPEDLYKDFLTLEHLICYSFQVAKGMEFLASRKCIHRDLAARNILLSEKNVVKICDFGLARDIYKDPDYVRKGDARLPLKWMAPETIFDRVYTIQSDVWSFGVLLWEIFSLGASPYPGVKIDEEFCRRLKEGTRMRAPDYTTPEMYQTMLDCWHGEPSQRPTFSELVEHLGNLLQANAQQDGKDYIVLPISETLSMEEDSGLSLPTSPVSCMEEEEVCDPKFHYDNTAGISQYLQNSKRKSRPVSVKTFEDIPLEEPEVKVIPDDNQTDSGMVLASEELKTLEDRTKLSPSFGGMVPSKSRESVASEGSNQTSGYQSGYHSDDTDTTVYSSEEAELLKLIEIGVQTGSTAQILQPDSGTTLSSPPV

On to `Cc1cc(C(=O)Nc2ccc(Oc3ccc4nc(NC(=O)C5CC5)cn4c3)c(F)c2)c(=O)n(-c2ccc(F)cc2)c1C` [Example 70, N-[4-({2-[(cyclopropylcarbonyl)amino]imidazo[1,2-a]pyridin-6-yl}oxy)-3-fluorophenyl]-1-(4-fluorophenyl)-5,6-dimethyl-2-oxo-1,2-dihydropyridine-3-carboxamide], for which the IC50 in assay [1], in assay [2] and in assay [3] was at most 1000 nM throughout. The inhibition at 1 µM in assay [3] was at least 90%.

In the case of `Cc1ccc(C(=O)Nc2ccc(Oc3ccc4nc(NC(=O)C5CC5)cn4c3)cc2)c(=O)n1-c1ccc(F)cc1` [Example 28, N-[4-({2-[(cyclopropylcarbonyl)amino]imidazo[1,2-a]pyridin-6-yl}oxy)phenyl]-1-(4-fluorophenyl)-6-methyl-2-oxo-1,2-dihydropyridine-3-carboxamide], the IC50 in assay [1], in assay [2] and in assay [3] was at most 1000 nM throughout. The inhibition at 1 µM in assay [3] is at least 90%.

On to `Cc1ccc(C(=O)Nc2ccc(Oc3ccc4nc(NC(=O)C5CC5)cn4c3)c(F)c2)c(=O)n1-c1ccc(F)cc1.Cl` [Example 32, N-[4-({2-[(cyclopropylcarbonyl)amino]imidazo[1,2-a]pyridin-6-yl}oxy)-3-fluorophenyl]-1-(4-fluorophenyl)-6-methyl-2-oxo-1,2-dihydropyridine-3-carboxamide hydrochloride], for which the IC50 in assay [1] was at most 1000 nM. Also, in assay [3], the inhibition at 1 µM is at least 90% and the IC50 was at most 1000 nM.

Take `CC1CCN(C(=O)Nc2ccc(Oc3ccc4nc(NC(=O)C5CC5)cn4c3)c(F)c2)C(=O)N1c1ccc(F)cc1` (centres unmarked) [Example 80, N-[4-({2-[(cyclopropylcarbonyl)amino]imidazo[1,2-a]pyridin-6-yl}oxy)-3-fluorophenyl]-3-(4-fluorophenyl)-4-methyl-2-oxotetrahydropyrimidine-1(2H)-carboxamide]: the IC50 in assay [1], in assay [2] and in assay [3] was at most 1000 nM each time. In addition, in assay [3], the inhibition at 1 µM was at least 90%.

As to `Cc1ccc(C(=O)Nc2ccc(Oc3ccc4nc(NC(=O)C5CC5)cn4c3)cn2)[n+]([O-])c1-c1ccc(F)cc1` [Example 61, N-[5-({2-[(cyclopropylcarbonyl)amino]imidazo[1,2-a]pyridin-6-yl}oxy)pyridin-2-yl]-6-(4-fluorophenyl)-5-methylpyridine-2-carboxamide 1-oxide], the IC50 in assay [1], in assay [2] and in assay [3] was at most 1000 nM in each case. In assay [3], the inhibition at 1 µM is at least 90%.

As to `Cc1c(C(=O)Nc2ccc(Oc3ccc4nc(NC(=O)C5CC5)cn4c3)c(F)c2)c(=O)n(-c2ccccc2)n1C` [Example 46, N-[4-({2-[(cyclopropylcarbonyl)amino]imidazo[1,2-a]pyridin-6-yl}oxy)-3-fluorophenyl]-1,5-dimethyl-3-oxo-2-phenyl-2,3-dihydro-1H-pyrazole-4-carboxamide], the IC50 in assay [1], in assay [2] and in assay [3] was at most 1000 nM in each case. Besides, the inhibition at 1 µM in assay [3] is at least 90%.

Regarding `Cc1ccc(C(=O)Nc2ccc(Oc3ccc4nc(NC(=O)C5CC5)cn4c3)c(F)c2)[n+]([O-])c1-c1ccc(F)cc1` [Example 29, N-[4-({2-[(cyclopropylcarbonyl)amino]imidazo[1,2-a]pyridin-6-yl}oxy)-3-fluorophenyl]-6-(4-fluorophenyl)-5-methylpyridine-2-carboxamide 1-oxide], the IC50 in assay [1], in assay [2] and in assay [3] was at most 1000 nM each time. Also, the inhibition at 1 µM in assay [3] is at least 90%.

With `Cc1cc(C(=O)Nc2ccc(Oc3ccc4nc(NC(=O)C5CC5)cn4c3)c(F)c2)c(=O)n(-c2ccc(F)cc2)c1` [Example 66, N-[4-({2-[(cyclopropylcarbonyl)amino]imidazo[1,2-a]pyridin-6-yl}oxy)-3-fluorophenyl]-1-(4-fluorophenyl)-5-methyl-2-oxo-1,2-dihydropyridine-3-carboxamide], the IC50 in assay [1], in assay [2] and in assay [3] was at most 1000 nM each time. The inhibition at 1 µM in assay [3] is at least 90%.

For the compound `Cc1ccc(C(=O)Nc2ccc(Oc3ccn4nc(NC(=O)C5CC5)nc4c3)c(F)c2)c(=O)n1-c1ccc(F)cc1` [Example 76, N-[4-({2-[(cyclopropylcarbonyl)amino][1,2,4]triazolo[1,5-a]pyridine-7-yl}oxy)-3-fluorophenyl]-1-(4-fluorophenyl)-6-methyl-2-oxo-1,2-dihydropyridine-3-carboxamide], the IC50 in assay [1], in assay [2] and in assay [3] was at most 1000 nM throughout. Moreover, in assay [3], the inhibition at 1 µM was at least 90%.

Regarding `Cc1ccc(C(=O)Nc2ccc(Oc3ccc4nc(NC(=O)C5CC5)cn4c3)cc2F)[n+]([O-])c1-c1ccc(F)cc1` [Example 84, N-[4-({2-[(cyclopropylcarbonyl)amino]imidazo[1,2-a]pyridin-6-yl}oxy)-2-fluorophenyl]-6-(4-fluorophenyl)-5-methylpyridine-2-carboxamide 1-oxide], the IC50 in assay [1], in assay [2] and in assay [3] was at most 1000 nM throughout. Further, the inhibition at 1 µM in assay [3] is at least 90%.

Turning to `Cc1ccc(C(=O)Nc2ccc(Oc3ccc4nc(NC(=O)C5CC5)cn4c3)c(F)c2)c(=O)n1-c1ccc(F)c(F)c1` [Example 45, N-[4-({2-[(cyclopropylcarbonyl)amino]imidazo[1,2-a]pyridin-6-yl}oxy)-3-fluorophenyl]-1-(3,4-difluorophenyl)-6-methyl-2-oxo-1,2-dihydropyridine-3-carboxamide], the IC50 in assay [1], in assay [2] and in assay [3] was at most 1000 nM each time. The inhibition at 1 µM in assay [3] is at least 90%.

Regarding `Cc1ccc(C(=O)Nc2ccc(Oc3ccc4nc(NC(=O)C5CC5)cn4c3)c(F)c2)[n+]([O-])c1-c1cccc(F)c1` [Example 93, N-[4-({2-[(cyclopropylcarbonyl)amino]imidazo[1,2-a]pyridin-6-yl}oxy)-3-fluorophenyl]-6-(3-fluorophenyl)-5-methylpyridine-2-carboxamide 1-oxide], the IC50 in assay [1], in assay [2] and in assay [3] was at most 1000 nM throughout. For the same compound, the inhibition at 1 µM in assay [3] was at least 90%.

(Values after patent US8445509B2, “Fused heterocyclic derivatives and use thereof” (Takeda Pharmaceutical Company Limited, priority 2008, dated 2013).)
